This note sets out measurements from patent US10266510B2, “Antimicrobial and cytotoxic compounds and methods for treating cancer, a bacterial infection, and/or a fungal infection” (King Abdulaziz University, priority 2017, dated 2019).

What all share (assay): Well diffusion agar method, inhibition zone
Type in all cases: cell-based
(In agar diffusion tests the substance spreads into inoculated agar from a disc or well.)

In assay [1] the test system is Aspergillus flavus ATCC 16883. The following applies: for zone of inhibition at 50 µg/mL: Aspergillus flavus, ATCC16883; for Antifungal activity (in words): A. flavus, in comparison with Neomycin. The source says:
(§1) The ability to inhibit the growth of Gram-positive and Gram-negative bacteria, yeasts and filamentous fungi was observed using an overlay method (S. R. Connell, D. M. Tracz, K. H. Nierhaus, D. E. Taylor, Antimicrob. Agents Chemother. 47, 3675 (2003), incorporated herein by reference in its entirety).
(§2) The common pathogenic and food spoilage microorganisms were selected for their relevance in bakery products and other food: the gram-positive bacteria: Bacillus subtilits NRRL-B-4219, Staphylococcus aureus ATCC 6538, Enterococcus faecalis ATCC 19433; the gram negative bacteria: Escherichia coli ATCC 25922, Pseudomonas aeruginosa ATCC 9027, Proteus sp.; yeasts, such as Candida albicans ATCC 10231; and fungi: Aspergillus niger NRRL 2766 (equivalent to ATCC 16888), and Aspergillus flavus ATCC 16883. The bacteria were slanted on nutrient agar (Merck, Darmstadt, Germany), yeast was slanted and mentioned on Sabaroud's agar medium (Lab M., Bury, Lancashire, UK) and the fungi was slanted and mentioned on the potato Dextrose Agar medium (Lab M Limited, Bury, Lancashire, UK). Mueller-Hinton agar (Lab M., Bury, Lancashire, UK) following the manufacturer's instructions was used for the assay.
(§3) All compounds were dissolved in dimethyl sulfoxide (RFCL Limited, New Delhi, India) at 50 μg/mL concentration as shown in Table 4 in comparison with different standard antibiotics. Antibiotic discs of Streptomycin (S) (10 μg), Oxytetracycline (T) (30 μg), and Tetracyciline (TE) (30 μg) were used as positive controls for bacteria. Neomycin (N) (30 μg), was used for fungi.
(§4) The antibacterial screening was performed with the well diffusion agar method (S. T. Williams, M. Goodfellow, E. M. H. Wellington, J. C. Vickers, G. Alderson, P. H. A. Sneath, S. M. J. Sackins, A. M. Mortimer, J. Gen. Microbiol. 129, 1815(1983); and B. Bonev, J. Hooper, J. Parisot, J. Antimicrob. Chemother., 61, 1295(2008), each incorporated herein by reference in their entirety). The organisms were streaked in radial patterns on the agar plates. Plates were incubated under aerobic conditions at 37° C. and 28° C. for 24 h and 48 h for bacteria and fungi, respectively. All prepared solutions were treated under the same conditions under the same incubated plates. All tests were performed in triplicate. Plates were examined for evidence of antimicrobial activities, represented by a zone of inhibition of the microorganism's growth around the holes, and diameters of clear zones were expressed in millimeters (R. Cruickshank, J. P. Duguid, B. P. Marmion, R. H. A. Swain, The practice of medicinal microbiology. In Medical Microbiology, 12th ed.; Churchill Livingstone: Edinburgh, UK, Volume 11, pp. 196-202 (1975), incorporated herein by reference in its entirety).

For assay [2], the system named is Aspergillus niger NRRL 2766. The settings on record: for zone of inhibition at 50 µg/mL / Antifungal effect (in words): Aspergillus niger; for zone of inhibition at 50 µg/mL: NRRL2766; for Antifungal effect (in words): in comparison with Neomycin.
Excerpt: as §1, §2, §3, §4

The subject of assay [3] is Bacillus subtilits NRRL-B-4219. The following applies: compound at 50 μg/mL in DMSO, 37° C., 24 h; for zone of inhibition at 50 µg/mL: Bacillus, NRRLB4219.
Excerpt: as §1, §2, §3, §4

The test system of assay [4] is Candida albicans ATCC 10231. The following applies: compound at 50 μg/mL in DMSO, 28° C., 48 h; for zone of inhibition at 50 µg/mL: Candida albicans, ATCC10231.
Excerpt: as §1, §2, §3, §4

The subject of assay [5] is Enterococcus faecalis ATCC 19433. The following applies: compound at 50 μg/mL in DMSO, 37° C., 24 h; for zone of inhibition at 50 µg/mL: Enterococcus faecalis, ATCC19433, read-out: Inhibition zone, Ent. faecalis.
Excerpt: as §1, §2, §3, §4

In assay [6] the test system is Escherichia coli ATCC 25922. The following applies: compound at 50 μg/mL in DMSO, 37° C., 24 h; for zone of inhibition at 50 µg/mL: Escherichia coli, ATCC25922, read-out: Inhibition zone, E. coli.
Excerpt: as §1, §2, §3, §4

The test system of assay [7] is Proteus sp. The settings on record: compound at 50 μg/mL in DMSO; 37° C., 24 h.
Excerpt: as §1, §2, §3, §4

Assay [8] concerns Pseudomonas aeruginosa ATCC 9027. The settings on record: compound at 50 μg/mL in DMSO, 37° C., 24 h; for zone of inhibition at 50 µg/mL: Pseudomonas aeruginosa, ATCC9027, read-out: Inhibition zone, P. aeruginosa.
Excerpt: as §1, §2, §3, §4

Assay [9] concerns Staphylococcus aureus ATCC 6538. The following applies: compound at 50 μg/mL in DMSO, 37° C., 24 h; for zone of inhibition at 50 µg/mL: Staphylococcus aureus, ATCC6538, read-out: Inhibition zone, S. aureus.
Excerpt: as §1, §2, §3, §4

[10] abbreviates: compound at 50 μg/mL in DMSO, 28° C., 48 h.

For the molecule `CCOC1Oc2ccccc2C(=O)C1=NNc1ccccc1OC` (stereo not shown) [Compound 6b, 2-ethoxy-3-(2-(2-methoxyphenyl)hydrazono)chroman-4-one], the zone of inhibition at 50 µg/mL in [1] (setting [10]) came to 0 mm; in assay [2] (setting [10]) it was 0 mm; in [3], 16 mm; in [4] it was 0 mm; in [5] it was 0 mm; in assay [6], 12 mm. Moreover, the zone of inhibition at 50 µg/mL was determined as 0 mm in [7], 0 mm in assay [8] and 13 mm in assay [9].
Turning to `CCOC1Oc2ccccc2C(=O)C1=NNc1ccc(Cl)cc1` (stereo not shown) [Compound 6c, 3-[(4-Chlorophenyl)hydrazono]-2-ethoxychroman-4-one], in assay [1], the “Antifungal activity (in words)” value is “moderate activity”. The zone of inhibition at 50 µg/mL in assay [1] (setting [10]) is 17 mm; in assay [2] (setting [10]), 18 mm; in assay [3], 32 mm; in assay [4], 20 mm; in [5], 21 mm; in assay [6] it was 30 mm. Moreover, the figures for the zone of inhibition at 50 µg/mL in assay [7], in assay [8] and in assay [9] were 26 mm, 28 mm and 30 mm, respectively. In addition, the “Antifungal effect (in words)” value in [2] was “more potent antifungal effect”.
For the molecule “Ethoxy-3-[(4-nitro-phenyl)-hydrazono]-chroman-one [Compound 6a]”, in assay [1], the “Antifungal activity (in words)” value is “moderate activity”. Moreover, the “Inhibition zone, A. flavus” value in [1] (setting [10]) is reported as 22 mm. Moreover, the “Antifungal effect (in words)” value in assay [2] is “more potent antifungal effect”. Also, in [2] (setting [10]), the “Inhibition zone, A. niger” value is 22 mm. Further, the “Inhibition zone, B. subtilits” value in assay [3] stood at 32 mm. Also, the “Inhibition zone, C. albicans” value in [4] was 24 mm. Also, the “Inhibition zone, Ent. faecalis” value in assay [5] is 25 mm. For the same molecule, the “Inhibition zone, E. coli” value in assay [6] came to 33 mm. Also, in [7], the “Inhibition zone, Proteus sp.” value turned out to be 27 mm. In addition, the “Inhibition zone, P. aeruginosa” value in assay [8] is 30 mm. The “Inhibition zone, S. aureus” value in assay [9] was 28 mm.
